In patent publication US20260226071A1, “2, 4-DIANILINOPYRIMIDINE-BASED AURORA-A KINASE SELECTIVE DEGRADATION INDUCING COMPOUNDS” (UPPTHERA, INC., priority 2023, published 2026):

Legend:
Aurora kinase A (AURKA) = target: T1, Aurora kinase A (AURKA) (Homo sapiens, UniProt O14965); experiment: Luciferase assay for AURKA in HeLa LgBit (AURKA-HiBit KI) cell line; format: cell-based; conditions: HeLa LgBit (AURKA-HiBit KI) cells, measured after 12 hours
T1 construct: endogenous in cells; host or cells: HeLa LgBit (AURKA-HiBit KI), CRISPR/Cas9 knock-in at the endogenous AURKA locus
T1 sequence (O14965 1-403): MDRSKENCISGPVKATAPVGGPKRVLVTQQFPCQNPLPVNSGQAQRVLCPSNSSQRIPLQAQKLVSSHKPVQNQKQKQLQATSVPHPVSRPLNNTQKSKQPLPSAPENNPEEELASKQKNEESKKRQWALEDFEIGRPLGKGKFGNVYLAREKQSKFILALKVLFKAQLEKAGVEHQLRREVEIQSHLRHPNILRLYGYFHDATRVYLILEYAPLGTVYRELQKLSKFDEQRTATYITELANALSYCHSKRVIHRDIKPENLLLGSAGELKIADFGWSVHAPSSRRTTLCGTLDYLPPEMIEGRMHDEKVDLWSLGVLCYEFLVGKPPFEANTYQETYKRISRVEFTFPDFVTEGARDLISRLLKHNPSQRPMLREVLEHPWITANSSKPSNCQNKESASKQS
Outline: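 Test compounds (10 nM or 100 nM) added to AURKA-HiBit knock-in HeLa LgBit cells that had been pre-loaded with Endurazine for 2 h following an 18 h culture at 3×10^4 cells. Endogenous AURKA-HiBit level followed by luminescence (470-480 nm), measured after 12 h.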

NCI-H446 cell line = experiment: Cell viability assay for NCI-H446 cell line; format: cell-based; conditions: Homo sapiens, NCI-H446, 120 h; H446 cells, 5 days culture, EZ-Cytox; read-out: IC50 value (Level)
Outline: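 Viability was measured by absorbance at 450 nm after 4 h with EZ-Cytox, following 5-day exposure of NCI-H446 cells (RPMI 1640, 10% FBS, 37 °C, 5% CO2) to 3-fold serial dilutions from 1000 nM down to 0.15 nM, added 24 h post-seeding.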

| luminescence value (Level) (Aurora kinase A (AURKA); 10 nM compound) | luminescence value (Level) (Aurora kinase A (AURKA); 100 nM compound) | Compound | IC50 (NCI-H446 cell line) [nM] |
| --- | --- | --- | --- |
| B (B is 0.3 to 0.5) | A (A is <0.2) | CC(CN1CCN(c2ccc(C3CCC(=O)NC3=O)cc2)CC1)N1CCC(NC(=O)c2ccc(Nc3ncc(F)c(Nc4ccc(C(=O)Nc5ccccc5Cl)cc4)n3)cc2)CC1 (stereo not drawn) [Compound 67, N-(2-chlorophenyl)-4-((2-((4-((1-(1-(4-(4-(2,6-dioxopiperidin-3-yl)phenyl)piperazin-1-yl)propan-2-yl)piperidin-4-yl)carbamoyl)phenyl)amino)-5-fluoropyrimidin-4-yl)amino)benzamide] | 100 to 150 |
| A (A is <0.3) | A (A is <0.2) | O=C1CCC(c2ccc(N3CCN(CCCN4CCC(NC(=O)c5ccc(Nc6ncc(F)c(Nc7ccc(C(=O)Nc8ccccc8Cl)cc7)n6)cc5)CC4)CC3)cc2)C(=O)N1 (stereo not drawn) [Compound 71, N-(2-chlorophenyl)-4-((2-((4-((1-(3-(4-(4-(2,6-dioxopiperidin-3-yl)phenyl)piperazin-1-yl)propyl)piperidin-4-yl)carbamoyl)phenyl)amino)-5-fluoropyrimidin-4-yl)amino)benzamide] | 100 to 150 |
| B (B is 0.3 to 0.5) | A (A is <0.2) | CCC(CN1CCN(c2ccc(C3CCC(=O)NC3=O)cc2)CC1)C1CCN(NC(=O)c2ccc(Nc3ncc(F)c(Nc4ccc(C(=O)Nc5ccccc5Cl)cc4)n3)cc2)CC1 (stereo not drawn) [Compound 72, N-(2-chlorophenyl)-4-((2-((4-((4-(1-(4-(4-(2,6-dioxopiperidin-3-yl)phenyl)piperazin-1-yl)butan-2-yl)piperidin-1-yl)carbamoyl)phenyl)amino)-5-fluoropyrimidin-4-yl)amino)benzamide] | < 50 |
| A (A is <0.3) | A (A is <0.2) | CN(CCN1CCN(c2ccc(C3CCC(=O)NC3=O)cc2)CC1)[C@H]1CC[C@H](NC(=O)c2ccc(Nc3ncc(F)c(Nc4ccc(C(=O)Nc5ccccc5Cl)cc4)n3)cc2)CC1 (stereo partly drawn) [Compound 75, N-(2-chlorophenyl)-4-((2-((4-(((1r,4r)-4-((2-(4-(4-(2,6-dioxopiperidin-3-yl)phenyl)piperazin-1-yl)ethyl)(methyl)amino)cyclohexyl)carbamoyl)phenyl)amino)-5-fluoropyrimidin-4-yl)amino)benzamide] | 50 to 100 |

More lines, now with the values behind:

| Compound | luminescence value (Level) (Aurora kinase A (AURKA); 10 nM compound) | luminescence value (Level) (Aurora kinase A (AURKA); 100 nM compound) | IC50 (NCI-H446 cell line) [nM] |
| --- | --- | --- | --- |
| CN(CC1CCN(c2ccc(NC3CCC(=O)NC3=O)cc2F)CC1)[C@H]1CC[C@H](NC(=O)c2ccc(Nc3ncc(F)c(Nc4ccc(C(=O)Nc5ccccc5Cl)cc4)n3)cc2)CC1 (stereo partly drawn) [Compound 66, N-(2-chlorophenyl)-4-[[2-[4-[[4-[[1-[4-[(2,6-dioxo-3-piperidyl)amino]-2-fluoro-phenyl]-4-piperidyl]methyl-methyl-amino]cyclohexyl]carbamoyl]anilino]-5-fluoro-pyrimidin-4-yl]amino]benzamide] | A (A is <0.3) | A (A is <0.2) | < 50 |
| CN(CC1CCN(c2ccc(NC3CCC(=O)NC3=O)cc2)CC1)[C@H]1CC[C@H](NC(=O)c2ccc(Nc3ncc(F)c(Nc4ccc(C(=O)Nc5ccccc5Cl)cc4)n3)cc2)CC1 (stereo partly drawn) [Compound 69, N-(2-chlorophenyl)-4-((2-((4-(((1r,4r)-4-(((1-(4-((2,6-dioxopiperidin-3-yl)amino)phenyl)piperidin-4-yl)methyl)(methyl)amino)cyclohexyl)carbamoyl)phenyl)amino)-5-fluoropyrimidin-4-yl)amino)benzamide] | A (A is <0.3) | A (A is <0.2) | 50 to 100 |
| O=C1CCC(c2ccc(N3CCN(CCN4CCC(C(=O)Nc5ccc(Nc6ncc(F)c(Nc7ccc(C(=O)Nc8ccccc8Cl)cc7)n6)cc5)CC4)CC3)cc2)C(=O)N1 (stereo not drawn) [Compound 70, N-(4-((4-((4-((2-chlorophenyl)carbamoyl)phenyl)amino)-5-fluoropyrimidin-2-yl)amino)phenyl)-1-(2-(4-(4-(2,6-dioxopiperidin-3-yl)phenyl)piperazin-1-yl)ethyl)piperidine-4-carboxamide] | A (A is <0.3) | A (A is <0.2) | 50 to 100 |
| O=C1CCC(Nc2ccc(N3CCN(CCN4CCC(NC(=O)c5ccc(Nc6ncc(F)c(Nc7ccc(C(=O)Nc8ccccc8Cl)cc7)n6)cc5)CC4)CC3)cc2)C(=O)N1 (stereo not drawn) [Compound 73, N-(2-chlorophenyl)-4-((2-((4-((1-(2-(4-(4-((2,6-dioxopiperidin-3-yl)amino)phenyl)piperazin-1-yl)ethyl)piperidin-4-yl)carbamoyl)phenyl)amino)-5-fluoropyrimidin-4-yl)amino)benzamide] | A (A is <0.3) | A (A is <0.2) | 100 to 150 |
| O=C1CCC(c2ccc(N3CCN(CC[C@H]4CC[C@H](NC(=O)c5ccc(Nc6ncc(F)c(Nc7ccc(C(=O)Nc8ccccc8Cl)cc7)n6)cc5)CC4)CC3)c(F)c2)C(=O)N1 (stereo partly drawn) [Compound 74, N-(2-chlorophenyl)-4-((2-((4-(((1r,4r)-4-(2-(4-(4-(2,6-dioxopiperidin-3-yl)-2-fluorophenyl)piperazin-1-yl)ethyl)cyclohexyl)carbamoyl)phenyl)amino)-5-fluoropyrimidin-4-yl)amino)benzamide] | B (B is 0.3 to 0.5) | A (A is <0.2) | < 50 |
| CN(CC1CCN(c2ccc(C3CCC(=O)NC3=O)cc2F)CC1)[C@H]1C[C@H](NC(=O)c2ccc(Nc3ncc(F)c(Nc4ccc(C(=O)Nc5ccccc5Cl)cc4)n3)cc2)C1 (stereo partly drawn) [Compound 76, N-(2-chlorophenyl)-4-((2-((4-(((1r,3r)-3-(((1-(4-(2,6-dioxopiperidin-3-yl)-2-fluorophenyl)piperidin-4-yl)methyl)(methyl)amino)cyclobutyl)carbamoyl)phenyl)amino)-5-fluoropyrimidin-4-yl)amino)benzamide] | B (B is 0.3 to 0.5) | A (A is <0.2) | 50 to 100 |
| O=C1CCC(c2ccc(N3CCC(CN4CC5(CC(NC(=O)c6ccc(Nc7ncc(F)c(Nc8ccc(C(=O)Nc9ccccc9Cl)cc8)n7)cc6)C5)C4)CC3)c(F)c2)C(=O)N1 (stereo not drawn) [Compound 77, N-(2-chlorophenyl)-4-((2-((4-((2-((1-(4-(2,6-dioxopiperidin-3-yl)-2-fluorophenyl)piperidin-4-yl)methyl)-2-azaspiro[3.3]heptan-6-yl)carbamoyl)phenyl)amino)-5-fluoropyrimidin-4-yl)amino)benzamide] | A (A is <0.3) | A (A is <0.2) | 50 to 100 |
| O=C1CCC(c2ccc(N3CC4(CCN(CC5CCN(NC(=O)c6ccc(Nc7ncc(F)c(Nc8ccc(C(=O)Nc9ccccc9Cl)cc8)n7)cc6)CC5)CC4)C3)c(F)c2)C(=O)N1 (stereo not drawn) [Compound 78, N-(2-chlorophenyl)-4-[[2-[4-[[4-[[2-[4-(2,6-dioxo-3-piperidyl)-2-fluoro-phenyl]-2,7-diazaspiro[3.5]nonan-7-yl]methyl]-1-piperidyl]carbamoyl]anilino]-5-fluoro-pyrimidin-4-yl]amino]benzamide] | B (B is 0.3 to 0.5) | A (A is <0.2) | 50 to 100 |
